Experimental findings from BindingDB's records for doi:10.1021/cb500360c (AstraZeneca, 2014) are described below.

Assay [1] addresses UDP-N-acetylmuramate--L-alanine ligase (Escherichia coli (strain K12), UniProt P17952). Briefly: E.coli MurC assay. The conditions noted are these: 25 °C. As to the method: The reactions (25 μL) were carried out in 25 mM Tris-HCl pH 8.0, 10 mM ammonium sulfate, 1.25 mM DTT, 0.002% Brij-35, 10 mM MgCl2, 40 μM UNAM, 100 μM ATP, 40 μM L-alanine and 15 nM enzyme in 384-well plate at 25 C for 50 minutes.

Assay [2] concerns the target UDP-N-acetylmuramate--L-alanine ligase (Pseudomonas aeruginosa (strain ATCC 15692 / DSM 22644 / CIP 104116 / JCM 14847 / LMG 12228 / 1C / PRS 101 / PAO1), UniProt Q9HW02). Briefly: P. aeruginosa MurC assay. The conditions noted are these: 25 °C. As to the method: The reactions (50 μL) were carried out in 50 mM Tris-HCl pH 8.0, 20 mM ammonium sulfate, 2.5 mM DTT, 0.002% Brij-35, 1 mM MgCl2, 18 μM UNAM, 38 μM ATP, 28 μM L-alanine, 2 μg/mL Poly uridine nucleic acid, 0.1 μM Polynucleotide Phosphorylase, 0.25X ribogreen and 3 nM enzyme in 384-well plate at 25 C for 60 minutes.

pIC50: −log10 of the molar value.

By pIC50 is commonly meant the IC50 on a negative log10 scale, so that one unit is a factor of ten. Lower therefore signals a large IC50.

UDP-N-acetylmuramate--L-alanine ligase (Escherichia coli (strain K12), UniProt P17952), sequence (P17952 whole entry): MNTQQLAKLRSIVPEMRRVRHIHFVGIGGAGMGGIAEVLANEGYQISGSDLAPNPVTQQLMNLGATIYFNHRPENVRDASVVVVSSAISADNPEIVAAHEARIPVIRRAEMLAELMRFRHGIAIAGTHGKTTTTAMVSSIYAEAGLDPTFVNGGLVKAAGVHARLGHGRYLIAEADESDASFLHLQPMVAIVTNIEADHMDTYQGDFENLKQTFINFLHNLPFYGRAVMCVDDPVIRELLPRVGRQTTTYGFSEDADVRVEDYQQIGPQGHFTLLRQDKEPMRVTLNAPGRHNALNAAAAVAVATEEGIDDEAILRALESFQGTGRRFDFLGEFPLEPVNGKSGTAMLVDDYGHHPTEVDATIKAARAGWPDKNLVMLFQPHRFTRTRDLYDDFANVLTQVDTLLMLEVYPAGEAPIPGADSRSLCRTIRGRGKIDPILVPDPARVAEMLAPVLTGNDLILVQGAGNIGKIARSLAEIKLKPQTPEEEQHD

For the molecule `Cn1nc(Nc2nc(NC(CO)C3CCOCC3)nc3n[nH]cc23)cc1C(C)(C)C` (stereo unspecified) [2-(4-(5-tert-butyl-1-methyl-1H-pyrazol-3-ylamino)-1H-pyrazolo[3,4-d]pyrimidin-6-ylamino)-2-(tetrahydro-2H-pyran-4-yl)ethanol (8)], the figures for the negative logarithm of the IC50 (pIC50) in assay [1] and in assay [2] were 7.00 and 7.96, respectively.

For the molecule `OCC1CCCCN1c1nc(Nc2cc(C3CC3)[nH]n2)c2cn[nH]c2n1` (stereo unspecified) [(1-(4-(3-cyclopropyl-1H-pyrazol-5-ylamino)-1H-pyrazolo[3,4-d]pyrimidin-6-yl)piperidin-2-yl)methanol (1)], in assay [2], the pIC50 was 6.00.

Take `Cn1nc(Nc2nc(N[C@@H]3c4ccccc4C[C@@H]3O)nc3n[nH]cc23)cc1C(C)(C)C` [(1R,2S)-1-(4-(5-tert-butyl-1-methyl-1H-pyrazol-3-ylamino)-1H-pyrazolo[3,4-d]pyrimidin-6-ylamino)-2,3-dihydro-1H-inden-2-ol (13)]: the pIC50 in assay [1] was 8.70.

`Cn1nc(Nc2nc(N[C@H](CO)C3CCCCC3)nc3n[nH]cc23)cc1C(C)(C)C` [((S)-2-(4-(5-tert-butyl-1-methyl-1H-pyrazol-3-ylamino)-1H-pyrazolo[3,4-d]pyrimidin-6-ylamino)-2-cyclohexylethanol (7)] gave a negative logarithm of the IC50 (pIC50) in assay [2] of 8.30.

Regarding `COc1cc([C@H](CO)Nc2nc(Nc3cc(C(C)(C)C)n(C)n3)c3c[nH]nc3n2)ccn1` [(R)-2-(4-(5-tert-butyl-1-methyl-1H-pyrazol-3-ylamino)-1H-pyrazolo[3,4-d]pyrimidin-6-ylamino)-2-(2-methoxypyridin-4-yl)ethanol (18)], the pIC50 in assay [1] was 7.82; in assay [2], 8.92.

On to `Cn1nc(Nc2nc(N[C@@H](CO)C3CCCCC3)nc3n[nH]cc23)cc1C(C)(C)C` [(R)-2-(4-(5-tert-butyl-1-methyl-1H-pyrazol-3-ylamino)-1H-pyrazolo[3,4-d]pyrimidin-6-ylamino)-2-cyclohexylethanol (6)], for which the pIC50 in assay [2] is 9.22.

As to `Cn1nc(Nc2nc(N[C@@H](CO)c3ccccc3)nc3n[nH]cc23)cc1C(C)(C)C` [(R)-2-(4-(5-tert-butyl-1-methyl-1H-pyrazol-3-ylamino)-1H-pyrazolo[3,4-d]pyrimidin-6-ylamino)-2-phenylethanol (10)], the pIC50 is over 8.30 in assay [1] and 9.00 in assay [2].

As for `Cn1nc(Nc2nc(N[C@@H](COC(=O)NCCN3CCC(=O)N3)c3ccccc3)nc3n[nH]cc23)cc1C(C)(C)C` [(R)-2-(4-(5-tert-butyl-1-methyl-1H-pyrazol-3-ylamino)-1H-pyrazolo[3,4-d]pyrimidin-6-ylamino)-2-phenylethyl 2-(3-oxopyrazolidin-1-yl)ethylcarbamate (25)], the negative-log IC50 (pIC50) is 7.22 in assay [1] and 8.15 in assay [2].

Regarding `Cn1nc(Nc2nc(N[C@@H](COC(=O)NCCN)c3ccccc3)nc3n[nH]cc23)cc1C(C)(C)C` [(R)-2-(4-(5-tert-butyl-1-methyl-1H-pyrazol-3-ylamino)-1H-pyrazolo[3,4-d]pyrimidin-6-ylamino)-2-phenylethyl 2-aminoethylcarbamate (22)], the pIC50 was 8.40 in assay [1] and 9.15 in assay [2].

Take `Cn1nc(Nc2nc(N[C@@H](COC(=O)NCCO)c3ccccc3)nc3n[nH]cc23)cc1C(C)(C)C` [(R)-2-(4-(5-tert-butyl-1-methyl-1H-pyrazol-3-ylamino)-1H-pyrazolo[3,4-d]pyrimidin-6-ylamino)-2-phenylethyl 2-hydroxyethylcarbamate (21)]: the pIC50 in assay [1] is 8.52; in assay [2] it was 8.70.

Turning to `CN1C(=O)NC[C@H]1CNC(=O)OC[C@H](Nc1nc(Nc2cc(C(C)(C)C)n(C)n2)c2c[nH]nc2n1)c1ccccc1` [(R)-2-(4-(5-tert-butyl-1-methyl-1H-pyrazol-3-ylamino)-1H-pyrazolo[3,4-d]pyrimidin-6-ylamino)-2-phenylethyl ((S)-3-methyl-2-oxoimidazolidin-4-yl)methylcarbamate (24)], the negative-log IC50 (pIC50) is 8.52 in assay [1] and over 9.30 in assay [2].

Turning to `Cn1nc(Nc2nc(N[C@@H](COC(=O)NO)c3ccccc3)nc3n[nH]cc23)cc1C(C)(C)C` [(R)-2-(4-(5-tert-butyl-1-methyl-1H-pyrazol-3-ylamino)-1H-pyrazolo[3,4-d]pyrimidin-6-ylamino)-2-phenylethyl hydroxycarbamate (20)], the negative logarithm of the IC50 (pIC50) in assay [1] was 7.28; in assay [2], 8.22.

Regarding `Cn1nc(Nc2nc(N[C@@H](COC(=O)NCc3cc(=O)c(O)cn3O)c3ccccc3)nc3[nH]ncc23)cc1C(C)(C)C` [(R)-2-(4-(5-tert-butyl-1-methyl-1H-pyrazol-3-ylamino)-1H-pyrazolo[3,4-d]pyrimidin-6-ylamino)-2-phenylethyl(1,5-dihydroxy-4-oxo-1,4-dihydropyridin-2-yl)methylcarbamate (23)], the negative-log IC50 (pIC50) in assay [1] is over 9.00; in assay [2] it was 8.89.

For `CC(C)[C@H](CO)Nc1nc(Nc2cc(C(C)(C)C)n(C)n2)c2c[nH]nc2n1` [(R)-2-(4-(5-tert-butyl-1-methyl-1H-pyrazol-3-ylamino)-1H-pyrazolo[3,4-d]pyrimidin-6-ylamino)-3-methylbutan-1-ol (9)], the pIC50 was 6.73 in assay [1] and 7.89 in assay [2].

Take `Cn1nc(Nc2nc(N[C@@H](CO)c3ccncc3Cl)nc3n[nH]cc23)cc1C(C)(C)C` [(R)-2-((4-((5-(tert-butyl)-1-methyl-1H-pyrazol-3-yl)amino)-1H-pyrazolo[3,4-d]pyrimidin-6-yl)amino)-2-(3-chloropyridin-4-yl)ethanol (19)]: the pIC50 in assay [1] is 7.24; in assay [2], 8.10.

On to `COc1ccc([C@H](CO)Nc2nc(Nc3cc(C(C)(C)C)n(C)n3)c3c[nH]nc3n2)cc1` [(R)-2-((4-((5-(tert-butyl)-1-methyl-1H-pyrazol-3-yl)amino)-1H-pyrazolo[3,4-d]pyrimidin-6-yl)amino)-2-(4-methoxyphenyl)ethanol (16)], for which the pIC50 was 7.68 in assay [1] and 8.40 in assay [2].

As to `Cn1nc(Nc2nc(N[C@@H](CO)c3ccccn3)nc3n[nH]cc23)cc1C(C)(C)C` [(R)-2-((4-((5-(tert-butyl)-1-methyl-1H-pyrazol-3-yl)amino)-1H-pyrazolo[3,4-d]pyrimidin-6-yl)amino)-2-(pyridin-2-yl)ethanol (14)], the pIC50 in assay [1] was 7.40; in assay [2], 8.10.

The molecule `Cn1nc(Nc2nc(N[C@@H](CO)c3cccnc3)nc3n[nH]cc23)cc1C(C)(C)C` [(R)-2-((4-((5-(tert-butyl)-1-methyl-1H-pyrazol-3-yl)amino)-1H-pyrazolo[3,4-d]pyrimidin-6-yl)amino)-2-(pyridin-3-yl)ethanol (15)] had a negative-log IC50 (pIC50) in assay [2] of 8.05.

For the molecule `Cn1nc(Nc2nc(N[C@@H](COC(=O)N3CCOC(CN)C3)c3ccccc3)nc3n[nH]cc23)cc1C(C)(C)C` (stereo partly drawn) [(R)-((R)-2-(4-(5-tert-butyl-1-methyl-1H-pyrazol-3-ylamino)-1H-pyrazolo[3,4-d]pyrimidin-6-ylamino)-2-phenylethyl) 2-(aminomethyl)morpholine-4-carboxylate (26)], the pIC50 in assay [1] was 8.30; in assay [2] it was 9.22.

For the molecule `Cc1cc([C@H](CO)Nc2nc(Nc3cc(C(C)(C)C)n(C)n3)c3c[nH]nc3n2)on1` [(S)-2-(4-(5-tert-butyl-1-methyl-1H-pyrazol-3-ylamino)-1H-pyrazolo[3,4-d]pyrimidin-6-ylamino)-2-(3-methylisoxazol-5-yl)ethanol (12)], the results for the negative logarithm of the IC50 (pIC50) in assay [1] and in assay [2] were 7.22 and 8.15, respectively.

For the molecule `Cn1nc(Nc2nc(N[C@H](CO)c3ccccc3)nc3[nH]ncc23)cc1C(C)(C)C` [(S)-2-(4-(5-tert-butyl-1-methyl-1H-pyrazol-3-ylamino)-1H-pyrazolo[3,4-d]pyrimidin-6-ylamino)-2-phenylethanol (11)], the pIC50 is 7.96 in assay [1] and 8.10 in assay [2].

In the case of `Cn1nc(Nc2nc(N[C@H](CO)c3cccc(F)c3)nc3n[nH]cc23)cc1C(C)(C)C` [(S)-2-((4-((5-(tert-butyl)-1-methyl-1H-pyrazol-3-yl)amino)-1H-pyrazolo[3,4-d]pyrimidin-6-yl)amino)-2-(3-fluorophenyl)ethanol (17)], the figures for the pIC50 in assay [1] and in assay [2] were 8.40 and over 9.30, respectively.

`OC[C@@H](Nc1nc(Nc2cc(C3CC3)n[nH]2)c2c[nH]nc2n1)C1CCCCC1` [(S)-2-cyclohexyl-2-(4-(3-cyclopropyl-1H-pyrazol-5-ylamino)-1H-pyrazolo[3,4-d]pyrimidin-6-ylamino)ethanol (2)] gave a pIC50 in assay [2] of 7.30.

In assay [2], `CC(C)c1cc(Nc2nc(N[C@H](CO)C3CCCCC3)nc3n[nH]cc23)[nH]n1` [(S)-2-cyclohexyl-2-(4-(5-isopropyl-1H-pyrazol-3-ylamino)-1H-pyrazolo[3,4-d]pyrimidin-6-ylamino)ethanol (3)] showed a pIC50 of 8.00.
